Here are results for 4 compounds from US9675609B2 (priority 2015, dated 2017).

The test system of one data set is human tumor xenografts. Conditions: human tumor xenografts in mice; Pantazis et al.; cited from earlier work. (In general: Xenograft models place foreign cells or tissue in a host animal.)
For another data set, the system named is human HT29-colon tumor. As to conditions: nude mice; Cao et al. Cancer Research 2009; cited from earlier work.
Data set [1] is classed as physicochemical. As to conditions: PSD of raw powders.
Another data set relates to human xenografts. Nature of the data set: Raw CZ48 powders in cottonseed oil against 29 human xenografts in nude mice. Type of data set: in vivo. As to conditions: cancerous mice.
The nature of data set [2]: PK studies of raw CZ48 cottonseed oil suspension in mice. As to conditions: dose 100 mg/kg or higher.
Source text: (§1) Raw or native CZ48 powders have been intensively tested against human xenografts grown in nude mice. […] Cmax refers to the peak plasma concentration of the drug after administration.
Data set [3] in a line: PK absorption of CZ48 in dogs. Type of data set: in vivo. Conditions: Dog, 400 mg/kg based on API content. The source says: Tmax refers to time to reach Cmax.
For data set [4] the following is noted: Wall et al. 1969; Giovanella et al. 1991; cited from earlier work.
Setting [5] is: analyte in blood, source CZ48 composite particles equivalent to 400 mg/kg API, single dose, female healthy mice, CPT is the metabolite.

The structures appear in SMILES notation. Read-outs that look alike come from different tables or passages of the source.

Source text for human xenografts: as §1

With `CC[C@@]1(O)C(=O)OCc2c1cc1n(c2=O)Cc2cc3c([N+](=O)[O-])cccc3nc2-1` [9NC, 9-nitrocamptothecin], the “times more potent than CPT” value with human tumor xenografts was 2-3 times.
Take `CC[C@@]1(O)C(=O)OCc2c1cc1n(c2=O)Cc2cc3ccccc3nc2-1` [CPT, 20(S)-camptothecin, reference compound]: under setting [5], the AUC0-24 came out at 51.7 ng·h/mL, the Cmax amounted to 26.0 ng/mL and the Tmax amounted to 30 min.
Regarding `CCC(=O)O[C@]1(CC)C(=O)OCc2c1cc1n(c2=O)Cc2cc3ccccc3nc2-1` [CZ48, camptothecin-20-O-propionate hydrate], the “dose needed to achieve the same result (good activity against HT29-colon tumor)” value with human HT29-colon tumor is on record as 1000 mg/kg. Further, in data set [1], the “D[4,3]” value was 7.612 μm, the “d(0.1)” value amounted to 2.612 μm, the “d(0.5)” value was 6.220 μm and the “d(0.9)” value was 14.556 μm. The “Cmax minimum requirement for a positive effect” value with human xenografts came to 100 ng/mL. The Cmax result in data set [2] is given as “greater than 100 ng/ml”. In addition, the Tmax (Mouse, 400 mg/kg based on API content) was determined as 60 min. Under setting [5], the Tmax is 30 min. Further, in data set [3], the AUC0-24 was 38.7 ng·h/mL, the Cmax is 3.4 ng/mL and the Tmax amounted to 240 min.
Turning to `CC[C@@](O)(C(=O)[O-])c1cc2n(c(=O)c1CO)Cc1cc3ccccc3nc1-2.[Na+]` [sodium carboxylate salt], in data set [4], the “potency relative to native camptothecin with closed lactone ring” value is recorded as 10%.

A word on the Cmax: it is the peak of the concentration-time curve. One may read the Tmax as the time from dosing to the highest level.
